Tests used:
BRD2 BD2 = biological target: T1, BRD2 BD2 (Homo sapiens, UniProt P25440); experiment: Binding assay, BRD2 BD2 to acetylated histone H4 Peptide-Biotin (EPIgeneous Binding Domain Kit B); conditions: for inhibition at 0.3 µM: test compound at 300 nmol/L, read-out: Binding inhibition percentage BRD2 BD2
T1 construct: BRD2 BD2, BRD3 BD2 and BRD4 BD2 (Cisbio); purchased Cisbio
Method in brief: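 HTRF binding of GST-tagged BD2 (20 nmol/L working stock) to biotinylated acetyl-histone H4 peptide (250 nmol/L working stock), using streptavidin-XL665 and anti-GST Eu cryptate. Incubated 20 h at room temperature; 665/620 nm ratio versus DMSO gives % inhibition; IC50 by four-parameter fit, or % inhibition at 300 nmol/L.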

BRD3 BD1 = biological target: T2, BRD3 BD1 (Homo sapiens, UniProt Q15059); experiment: Binding assay, BRD3 BD1 to acetylated histone H4 Peptide-Biotin (EPIgeneous Binding Domain Kit A); conditions: for inhibition at 0.3 µM: test compound at 300 nmol/L, read-out: Binding inhibition percentage BRD3 BD1
T2 construct: BRD2 BD1, BRD3 BD1 and BRD4 BD1 (Cisbio); purchased Cisbio
T2 sequence (Q15059 34-140 limits assumed): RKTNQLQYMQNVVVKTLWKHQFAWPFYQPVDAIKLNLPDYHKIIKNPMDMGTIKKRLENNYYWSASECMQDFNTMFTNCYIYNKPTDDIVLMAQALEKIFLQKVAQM
Method in brief: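 HTRF competition: bromodomain protein (added at 20 nmol/L) and biotinylated tetra-acetyl H4(1-25) peptide (added at 25 nmol/L) were incubated with compound, streptavidin-d2 and anti-GST Eu cryptate for 20 h at room temperature. Inhibition came from the 665/620 nm ratio relative to DMSO; IC50 by four-parameter fit; some compounds were tested only at 300 nmol/L final.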

[1] = system: human acute myeloid leukemia cell line RS4-11; experiment: Cell growth test (Cell Titer Glo) RS4-11; format: cell-based; conditions: RS4-11, Acute myeloid leukemia, 3 to 5 days
Text: (§1) The human undifferentiated thymoma cell line Ty-82 (JCRB), the human acute myeloid leukemia cell lines MV4-11 (ATCC), MOLM-13 (ATCC) and RS4-11 (ATCC), the human lymphoma cell line Raji (JCRB), the human cervical epidermoid carcinoma cell line Hela (JCRB), the human lung adenocarcinoma cell line A549 (ATCC), the human colon cancer cell lines DLD1 (DS Pharma) and HCT116 (DS Pharma), and the human pancreatic cancer cell line MIAPACA-2 (ATCC) were used to carry out a cell growth test.
(§2) Ty-82, MV4-11, MOLM-13, RS4-11, Raji and DLD1 were each seeded in a well plate, in which Roswell Park Memorial Institute (RPMI)-1640 medium supplemented with penicillin/streptomycin and fetal bovine serum (FBS) with a final concentration of 10% was placed. Hela was seeded in Dulbecco's Modified Eagle's medium (DMEM) supplemented with penicillin/streptomycin and FBS with a final concentration of 10%. A549 and MIAPACA-2 were each seeded in a well plate, in which Minimum Essential Medium (MEM) supplemented with penicillin/streptomycin and FBS with a final concentration of 10% was placed. […]
(§3) Thereafter, a medium containing a test compound serially diluted with DMSO, or DMSO, was added to each well of the plate, in which the cells had been seeded, and the obtained mixture was then cultured under conditions of 37° C. and 5% CO2 for 3 to 5 days. Cell Titer Glo reaction solution (Promega) was added to the culture, and the amount of luminescence was then measured using Envision plate reader (PerkinElmer). Since the amount of luminescence is in proportion to the concentration of adenosine triphosphate (ATP) in cells, the amount of luminescence was used as an indicator of the number of living cells. The growth inhibition percentage of the test compound in each concentration was calculated according to the following equation. Growth inhibition percentage (%)=(amount of luminescence in test compound−added well)/(amount of luminescence in DMSO−added well)×100 […]

[2] = system: human cervical epidermoid carcinoma cell line Hela; experiment: Cell growth test (Cell Titer Glo) Hela; format: cell-based; conditions: 3 to 5 days
Text: as §1, §2, §3

[3] = system: human colon cancer cell line DLD1; experiment: Cell growth test (Cell Titer Glo) DLD1; format: cell-based; conditions: DLD-1, 3 to 5 days
Text: as §1, §2, §3

[4] = system: MV4-11 subcutaneously transplanted tumor; experiment: Medicinal effect test, MV4-11-subcutaneously-transplanted cancer-bearing mouse models, oral administration; format: in vivo; conditions: orally, once per day, 14 days, BALB/c nu/nu mice
Experimental: The human acute myeloid leukemia cell line MV4-11 (ATCC) was suspended in a mixture of RPMI-1640 medium and Matrigel (Corning), and the obtained mixture was then subcutaneously transplanted into 6-week-old female BALB/c nu/nu mice (CLEA Japan, Inc.). After confirming that the average tumor volume exceeded 200 mm^3, a test compound was dissolved in a solvent (a 0.5% methyl cellulose aqueous solution or water containing 1 equivalent of hydrochloric acid), and the obtained solution was then orally administered to the mice at a daily dose of 10 to 30 mg/kg, once per day, for 14 days. As a negative control, a solvent administration group involving administration of a 0.5% methyl cellulose aqueous solution was established. The tumor diameter was measured on a daily basis, and the tumor volume was calculated. The tumor volume was calculated by measuring the major axis and minor axis of the tumor and then applying the following equation. Tumor volume (mm^3)=[major axis (mm)×minor axis (mm)×minor axis (mm)]/2
T/C (%) was calculated from the average tumor volume of each group according to the following equation, and medicinal effects were then evaluated. T/C(%)=[1−(average tumor volume of drug administration group)/(average tumor volume of solvent administration group)]×100%

T1 sequence (P25440 344-453 limits assumed): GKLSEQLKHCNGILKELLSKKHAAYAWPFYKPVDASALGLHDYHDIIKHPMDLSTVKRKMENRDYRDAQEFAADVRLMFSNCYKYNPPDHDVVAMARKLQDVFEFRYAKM

IC50 (BRD2 BD2) | inhibition at 0.3 µM (BRD2 BD2) | IC50 (BRD3 BD1) | inhibition at 0.3 µM (BRD3 BD1) | GI50 [1] | GI50 [2] | GI50 [3] | Structure (SMILES) | T/C (%) ([4]; 10 mg/kg) | T/C (%) ([4]; 30 mg/kg)
94 nM | 74% | 4 nM | 94% | 66 nM | 570 nM | 361 nM | CCn1c(=O)cc(C2CCN(C)CC2)c2cc(C(=O)N(C)c3ccc(C)cc3)ccc21 [Example 14, 1-Ethyl-N-methyl-N-(4-methylphenyl)-4-(1-methylpiperidin-4-yl)-2-oxo-1,2-dihydroquinoline-6-carboxamide] | 34% | 45%
33 nM | 85% | 3 nM | 94% | 30 nM | 314 nM | 165 nM | CCn1c(=O)cc(C2CCN(C)CC2)c2cc(C(=O)N(C)c3ccc4c(c3)CCC4)ccc21 [Example 17, N-(2,3-dihydro-1H-inden-5-yl)-1-ethyl-N-methyl-4-(1-methylpiperidin-4-yl)-2-oxo-1,2-dihydroquinoline-6-carboxamide] | 21% | 49%
7 nM | 89% | 37 nM | 90% | 85 nM | 1860 nM | 1340 nM | CCn1c(=O)cc(N2CCOCC2)c2cc(-n3c(-c4ccc(Cl)cc4)c[nH]c3=O)ccc21 [Example 245, 6-(5-(4-chlorophenyl)-2-oxo-2,3-dihydro-1H-imidazol-1-yl)-1-ethyl-4-(morpholin-4-yl)quinolin-2(1H)-one] |  | 42%

Source: US10987349B2, “Antitumor agent and bromodomain inhibitor” (FUJIFILM Corporation, priority 2016, dated 2021)
